Here are results for eleven compounds from PubChem BioAssay (NCI).

Some test systems named below: CAKI-1 renal; BT-549 breast; UO-31 renal; SW-620 colon; MCF7 breast; NCI-H460 lung; A549 NSCLC; MDA-N; RPMI-8226 leukemia; EKVX NSCLC; K-562 leukemia; MALME-3M melanoma; LOX IMVI melanoma; HL-60(TB) leukemia.
What all share (test): NCI-60 cell line screen, 48 h

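The compound was tested at five concentrations on cells cultured in 96-well plates, with a 48-hour exposure period. TGI is the concentration that stops growth completely.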 A value given as a limit tells only on which side of the number the result lay.

As to `C/C(=N\NC(=S)NNC(=S)N(C)c1ccccc1)c1ccccn1`, the TGI was 8.39 µM with CAKI-1 renal; greater than 100 µM in the assay on BT-549 breast; 7.59 µM with UO-31 renal; greater than 100 µM in the assay on SW-620 colon; greater than 100 µM with MCF7 breast; 29.5 µM with NCI-H460 lung. Besides, the TGI in the assay on A549 NSCLC was greater than 100 µM; in the assay on MDA-N it was greater than 100 µM; in the assay with RPMI-8226 leukemia, greater than 30.4 µM; in the assay on EKVX NSCLC, 10.7 µM; in the assay on K-562 leukemia, greater than 100 µM; in the assay on MALME-3M melanoma, 20.3 µM.
For the compound `COc1cc(C2(O)c3ccccc3C3=NCCN32)cc(OC)c1OC` (stereo not given), the TGI in the assay on CAKI-1 renal, in the assay with BT-549 breast, in the assay with UO-31 renal, in the assay with SW-620 colon, in the assay on NCI-H460 lung and in the assay with A549 NSCLC was greater than 100 µM throughout. The TGI with MDA-N, in the assay on RPMI-8226 leukemia, in the assay on K-562 leukemia, with LOX IMVI melanoma and in the assay on HL-60(TB) leukemia was greater than 100 µM in each case.
For the compound `Cc1ccc(CCCCCOc2ccc(C3=NCCO3)cc2)s1`, the TGI with CAKI-1 renal, with BT-549 breast, with UO-31 renal, in the assay with SW-620 colon, in the assay with MCF7 breast and with NCI-H460 lung was greater than 100 µM throughout. In addition, the TGI in the assay with A549 NSCLC is greater than 100 µM; in the assay on MDA-N it was 62.6 µM; in the assay with RPMI-8226 leukemia it was greater than 100 µM; with EKVX NSCLC, greater than 100 µM; in the assay with K-562 leukemia it was greater than 100 µM; with HL-60(TB) leukemia it was greater than 100 µM. This compound also had a TGI in the assay on MALME-3M melanoma greater than 100 µM.
As for `CC(=O)N1N=C(c2c(O)ccc3ccccc23)CC1c1ccc(Cl)cc1` (stereo not given), the TGI with CAKI-1 renal was greater than 100 µM; with BT-549 breast, 51.1 µM; in the assay with UO-31 renal it was 93.4 µM; in the assay with SW-620 colon, greater than 100 µM; in the assay with MCF7 breast it was 35.1 µM; with NCI-H460 lung, 48.1 µM. Further, the TGI in the assay with A549 NSCLC is greater than 100 µM; in the assay with MDA-N, 40.5 µM; with RPMI-8226 leukemia, 45.8 µM; in the assay with K-562 leukemia, 43.3 µM; with MALME-3M melanoma, 76.8 µM.
Consider `CN(C)/C=C/c1ccncc1`, for which the TGI with CAKI-1 renal, with BT-549 breast, with UO-31 renal, with SW-620 colon, in the assay with MCF7 breast and in the assay on NCI-H460 lung was greater than 100 µM throughout. In addition, the TGI in the assay with A549 NSCLC, with MDA-N, in the assay on RPMI-8226 leukemia, with EKVX NSCLC, in the assay with K-562 leukemia and in the assay on LOX IMVI melanoma was greater than 100 µM in each case. In the assay on MALME-3M melanoma, this compound had a TGI greater than 100 µM.
Turning to `CCN1C[C@]2(C)CC[C@H](OCc3ccccc3)C34C5C[C@@H]6CC[C@](O)(C(C[C@@H]32)C14)C5[C@H]6OCc1ccccc1` (stereo not given in full), the TGI with BT-549 breast, with UO-31 renal, in the assay on SW-620 colon, in the assay with MCF7 breast, with NCI-H460 lung and with A549 NSCLC was greater than 100 µM in each case. Besides, the TGI with MDA-N, with RPMI-8226 leukemia, with EKVX NSCLC, in the assay with K-562 leukemia, in the assay on LOX IMVI melanoma and in the assay with MALME-3M melanoma was greater than 100 µM in each case.
Consider `O=C(/C=C(\O)c1ccc(Cl)cc1)C(=O)NN=C(c1ccccc1)c1ccccc1`, for which the TGI with CAKI-1 renal is greater than 100 µM; in the assay on BT-549 breast, greater than 100 µM; in the assay on UO-31 renal, 90.4 µM; in the assay with MCF7 breast, greater than 100 µM; with NCI-H460 lung, 31.3 µM; with A549 NSCLC, greater than 100 µM. Besides, the TGI in the assay on MDA-N, with EKVX NSCLC, with K-562 leukemia and in the assay with MALME-3M melanoma was greater than 100 µM each time.
`COc1cccc(C[C@H]2COC(=O)[C@]2(O)Cc2cccc(OC)c2)c1`: the TGI with CAKI-1 renal, with BT-549 breast, in the assay on UO-31 renal, with SW-620 colon, in the assay with NCI-H460 lung and in the assay with A549 NSCLC was greater than 100 µM each time. Further, the TGI in the assay with MDA-N was greater than 100 µM; with RPMI-8226 leukemia it was greater than 100 µM; in the assay with EKVX NSCLC it was 81.6 µM; in the assay with K-562 leukemia it was greater than 100 µM; in the assay on LOX IMVI melanoma, greater than 100 µM; in the assay with HL-60(TB) leukemia, greater than 100 µM. Besides, the TGI with MALME-3M melanoma was greater than 100 µM.
For the compound `Cc1cc(C)c(NS(=O)c2cccc(Cl)c2)c(C)c1` (stereo not given), the TGI with BT-549 breast, with UO-31 renal, with SW-620 colon, with MCF7 breast, in the assay on NCI-H460 lung and in the assay with A549 NSCLC was greater than 100 µM each time. The TGI in the assay with MDA-N, with RPMI-8226 leukemia, with EKVX NSCLC, with K-562 leukemia, in the assay with HL-60(TB) leukemia and in the assay on MALME-3M melanoma was greater than 100 µM throughout.
With `O=C1c2ccccc2-c2c1c(-c1ccccc1)c1n2C2(C(=O)c3ccccc3C2=O)C2C(=O)N(c3ccccc3)C(=O)C12` (stereo not given), the TGI is greater than 100 µM in the assay with CAKI-1 renal; 45.2 µM in the assay with BT-549 breast; 79.3 µM with UO-31 renal; greater than 100 µM with SW-620 colon; 73.4 µM in the assay on MCF7 breast; 36.9 µM with NCI-H460 lung. Further, the TGI was greater than 100 µM with A549 NSCLC; 65.3 µM with MDA-N; greater than 100 µM with EKVX NSCLC; 32.8 µM in the assay with LOX IMVI melanoma; 51.9 µM in the assay with MALME-3M melanoma.
As to `O=C(NCC(C(=O)OCc1ccccc1)C(=O)OCc1ccccc1)OCc1ccccc1`, the TGI in the assay on CAKI-1 renal, with BT-549 breast, with UO-31 renal, in the assay on SW-620 colon, with MCF7 breast and with NCI-H460 lung was greater than 100 µM throughout. The TGI with A549 NSCLC, in the assay on MDA-N, in the assay on RPMI-8226 leukemia, in the assay on EKVX NSCLC, in the assay with K-562 leukemia and in the assay with MALME-3M melanoma was greater than 100 µM in each case.
